Test results as given in patent US7897326B2, “Peroxisome-proliferator activated receptor-alpha agonists for organ preservation” (University of Pittsburgh-of the Commonwealth System of …, priority 2006, dated 2011).
Structures can show the parent of a compound that is named as a salt.

Columns and labels:
rat kidneys [1] = assay: Light microscopy histology of isolated rat kidneys perfused 12 hours at 37° C. with L-15; conditions: for histological preservation as assessed by light microscopy (screen of pharmacological agents): agent added to L-15 perfusate, 12-hour perfusion at 37° C.; for histology at the light microscopic level / histology score (0 = unrecognizable micro-structure, 10 = 30-minute flushed kidney), FIG. 1: mannitol 20 grams/L, gemfibrozil 50 mg/L, 12-hour perfusion; for histology at the light microscopic level: vs L-15 alone; for histology score (0 = unrecognizable micro-structure, 10 = 30-minute flushed kidney), FIG. 1: blinded observer
Procedure: Animals. Male Sprague-Dawley rats, 15 to 20 weeks-of-age, were housed in a University of Pittsburgh Medical Center animal care facility (temperature 22 EC; light cycle 12 hours; relative humidity 55%). Animals were fed Pro Laboratory RMH 3000 rodent diet (PMI Nutrition Inc., St. Louis, Mo.) and were given water ad libitum. Institutional guidelines for animal welfare were followed, and the Institutional Animal Care and Use Committee approved experimental protocols.
Preparation of Perfusion System. Due to bacterial infection associated with chronic kidney perfusion at 37° C., rat kidneys were perfused in a sterile environment. A glass perfusion system (Hugo Sachs Elektronik-Harvard Apparatus GmbH), which allowed for autoclaving and ultraviolet-light sterilization without damage to the structural integrity of the system, was used in all experiments. This system included the following components arranged in series: a jacketed glass perfusate reservoir for warming and initial oxygenation of perfusate; a jacketed glass-oxygenator for additional oxygenation; a Windkessel chamber for absorption of pulsations; a jacketed heat exchanger for warming the perfusate and trapping bubbles just before the perfusate enters the kidney; and a jacketed organ chamber to keep the kidney's surrounding environment at 37° C.
Drug Preparation. Leibovitz L-15 cell culture medium (Sigma, St. Louis, Mo.) was mixed according to the manufacture's specifications to make 2 liters and 120 mg of penicillin was added. The pH of one liter of L-15 was adjusted to 7.4, and this solution was used during the kidney isolation procedure. The other liter was further prepared with addition of various pharmacological agents, and then the pH adjusted to 7.4. Both solutions were then filtered (0.22 microns) into 1 liter containers. The solution with the experimental drug was then perfused through the kidney perfusion system at a rate of 2.6 ml/min. The other solution was placed underneath the hood where the surgery was to be done.
Kidney Isolation. Kidneys were isolated under a laminar flow hood (Labconco) fitted with a separate roller pump. The operator used sterilized latex gloves with frequent application of 75% alcohol to gloves and instruments throughout the course of the surgery. Gloves were replaced anytime the operator's hands left the surgical hood. Animals were anesthetized with Inactin (90 mg/kg, ip; Sigma), the abdomen was shaved, washed with 75% alcohol, and covered with autoclaved paper towels. The tubing, which would eventually be required for isolation, was assembled and placed in the roller pump. This tubing consisted of three sequentially smaller sections, the middle of which was the pump tubing (Harvard Apparatus). The smallest of the sections was linked, using an adaptor connector, to PE-50 tubing (which had been previously soaked in alcohol for at least 2 days). This PE-50 tubing was for insertion into the renal artery. The largest size tubing was placed into the 1 liter of room temperature L-15. The pump was turned on for a brief time, allowing all tubing to be filled with L-15 medium to remove all air bubbles from the tubing. The skin covering the abdominal cavity was cut horizontally. A light spray of alcohol was applied to the area to remove pieces of hair, followed by a horizontal cut in the same area through the muscle; exposing the internal organs. A section of sterile gauze was set to the left of the animal, and the large/small intestines were gently pulled out of the abdominal cavity and wrapped in the gauze. […] All side branches of the renal artery and vein were ligated and cut. Next, the aorta, vena cava, renal artery and renal vein were identified, cleaned of fat and connective tissue and dissected free, and ligatures were loosely placed around these vessels. […]

rat kidneys [2] = assay: Apoptag (TUNEL) staining for apoptosis in 12-hour perfused rat kidneys; conditions: mannitol 20 grams/L, gemfibrozil 50 mg/L; vs L-15 alone
Procedure: (§1) Drug Preparation. Leibovitz L-15 cell culture medium (Sigma, St. Louis, Mo.) was mixed according to the manufacture's specifications to make 2 liters and 120 mg of penicillin was added. The pH of one liter of L-15 was adjusted to 7.4, and this solution was used during the kidney isolation procedure. The other liter was further prepared with addition of various pharmacological agents, and then the pH adjusted to 7.4. Both solutions were then filtered (0.22 microns) into 1 liter containers. The solution with the experimental drug was then perfused through the kidney perfusion system at a rate of 2.6 ml/min. The other solution was placed underneath the hood where the surgery was to be done. Kidney Isolation. Kidneys were isolated under a laminar flow hood (Labconco) fitted with a separate roller pump. The operator used sterilized latex gloves with frequent application of 75% alcohol to gloves and instruments throughout the course of the surgery. Gloves were replaced anytime the operator's hands left the surgical hood. Animals were anesthetized with Inactin (90 mg/kg, ip; Sigma), the abdomen was shaved, washed with 75% alcohol, and covered with autoclaved paper towels. The tubing, which would eventually be required for isolation, was assembled and placed in the roller pump. This tubing consisted of three sequentially smaller sections, the middle of which was the pump tubing (Harvard Apparatus). […]

rat kidneys [3] = assay: Perfusion pressure of isolated perfused rat kidney over 12 hours; conditions: mannitol 20 grams/L, gemfibrozil 50 mg/L
Procedure: as §1, with “Apparatus). The smallest of the sections was linked, using an adaptor connector, to PE-50 tubing (which had been previously soaked in alcohol for at least 2 days). This PE-50 tubing was for insertion into the renal artery. The largest size tubing was placed into the 1 liter of room temperature L-15. The pump was turned on for a brief time, allowing all tubing to be filled with L-15 medium to remove all air bubbles from the tubing. The skin covering the abdominal cavity was cut horizontally. A light spray of alcohol was applied to the area to remove pieces of hair, followed by a horizontal cut in the same area through the muscle; exposing the internal organs.” for “Apparatus).”

rat kidneys [4] = assay: Urine collection from isolated perfused rat kidney; conditions: 12 hours of perfusion; mannitol 20 grams/L, gemfibrozil 50 mg/L
Procedure: as §1

rat kidney tissue = assay: Electron microscopy of isolated rat kidneys perfused 12 hours with L-15; conditions: one kidney per group; mannitol 20 grams/L, gemfibrozil 50 mg/L; vs L-15 alone
Procedure: Drug Preparation. Leibovitz L-15 cell culture medium (Sigma, St. Louis, Mo.) was mixed according to the manufacture's specifications to make 2 liters and 120 mg of penicillin was added. The pH of one liter of L-15 was adjusted to 7.4, and this solution was used during the kidney isolation procedure. The other liter was further prepared with addition of various pharmacological agents, and then the pH adjusted to 7.4. Both solutions were then filtered (0.22 microns) into 1 liter containers. The solution with the experimental drug was then perfused through the kidney perfusion system at a rate of 2.6 ml/min. The other solution was placed underneath the hood where the surgery was to be done. Kidney Isolation. Kidneys were isolated under a laminar flow hood (Labconco) fitted with a separate roller pump. The operator used sterilized latex gloves with frequent application of 75% alcohol to gloves and instruments throughout the course of the surgery. Gloves were replaced anytime the operator's hands left the surgical hood. Animals were anesthetized with Inactin (90 mg/kg, ip; Sigma), the abdomen was shaved, washed with 75% alcohol, and covered with autoclaved paper towels. The tubing, which would eventually be required for isolation, was assembled and placed in the roller pump. This tubing consisted of three sequentially smaller sections, the middle of which was the pump tubing (Harvard Apparatus). The smallest of the sections was linked, using an adaptor connector, to PE-50 tubing (which had been previously soaked in alcohol for at least 2 days). This PE-50 tubing was for insertion into the renal artery. The largest size tubing was placed into the 1 liter of room temperature L-15. The pump was turned on for a brief time, allowing all tubing to be filled with L-15 medium to remove all air bubbles from the tubing. The skin covering the abdominal cavity was cut horizontally. A light spray of alcohol was applied to the area to remove pieces of hair, followed by a horizontal cut in the same area through the muscle; exposing the internal organs. A section of sterile gauze was set to the left of the animal, and the large/small intestines were gently pulled out of the abdominal cavity and wrapped in the gauze. […] All side branches of the renal artery and vein were ligated and cut. Next, the aorta, vena cava, renal artery and renal vein were identified, cleaned of fat and connective tissue and dissected free, and ligatures were loosely placed around these vessels. The infra-renal aorta was ligated, a small clamp was placed on the aorta just above the ligation but below the renal artery, a cut was made between the clamp and ligation, and the PE-50 tubing was inserted, secured with a ligature and advanced into the left renal artery. […]

Na+-K+-ATPase-α1 = assay: Western blotting and densitometry of Na+-K+-ATPase-α1 in 12-hour perfused rat kidneys; conditions: mannitol 20 grams/L, gemfibrozil 50 mg/L; 12-hour perfusion
Procedure: as §1

| Compound | histological preservation as assessed by light microscopy (screen of pharmacological agents) (rat kidneys [1]) | degree of apoptosis (Apoptag staining) (rat kidneys [2]) | histology at the light microscopic level (rat kidneys [1]) | histology score (0 = unrecognizable micro-structure, 10 = 30-minute flushed kidney), FIG. 1 (rat kidneys [1]) | rapid increase in perfusion pressure observed in L-15 alone kidneys, FIG. 3 (rat kidneys [3]) | total urine volume, FIG. 4C (rat kidneys [4]) | glomerular ultrastructure (electron microscopy) (rat kidney tissue) | tubular ultrastructure (electron microscopy) (rat kidney tissue) | Na+-K+-ATPase-α1 expression normalized to β-actin, FIG. 2 (Na+-K+-ATPase-α1) | initial renal perfusion pressure, FIG. 3 (rat kidneys [3]; L-15 alone approximately 50 mm Hg) |
| --- | --- | --- | --- | --- | --- | --- | --- | --- | --- | --- |
| NC(=O)c1cccc(N)c1 [3-aminobenzamide] | mild protection |  |  |  |  |  |  |  |  |  |
| C[C@]12CCC(=O)C=C1CC[C@@H]1[C@@H]2[C@@H](O)C[C@]2(C=O)[C@@H](C(=O)CO)CC[C@@H]12 [Aldosterone, aldosterone] | mild protection |  |  |  |  |  |  |  |  |  |
| Cc1ccc(C)c(OCCCC(C)(C)C(=O)O)c1 [gemfibrozil] | moderate histological preservation | reduced the degree of apoptosis | modestly improved | statistically significantly improved the histological score | delayed | increased total urine volume | slightly improved | only marginally better | slightly higher |  |
| OC[C@@H](O)[C@@H](O)[C@H](O)[C@H](O)CO [mannitol] | moderate histological preservation | reduced the degree of apoptosis | modestly improved | did not achieve statistical significance | more so | increased total urine volume | slightly improved | only marginally better | nearly undetectable | approximately 25 mm Hg |
| Nc1cc(N2CCCCC2)nc(N)[n+]1OS(=O)(=O)[O-] [minoxidil sulfate] | mild protection |  |  |  |  |  |  |  |  |  |
| O=c1[nH]c(=O)c2[nH]c(=O)[nH]c2[nH]1 [uric acid] | mild protection |  |  |  |  |  |  |  |  |  |
